These results are taken from ChEMBL document CHEMBL6083264, “Superacid-Synthesized Fluorinated Diamines Act as Selective hCA IV Inhibitors” (J Med Chem, 2024).

Structures are written as SMILES.

Some targets named below: Carbonic anhydrase 1 (Homo sapiens, UniProt P00915); Carbonic anhydrase 12 (Homo sapiens, UniProt O43570); Carbonic anhydrase 2 (Homo sapiens, UniProt P00918); Carbonic anhydrase 9 (Homo sapiens, UniProt Q16790).
Assay [1] has as its target T1, Carbonic anhydrase 4 (Homo sapiens, UniProt P22748).
Description: Inhibition of human CA-IV-catalysed CO2 hydration activity incubated for 15 min by Phenol red dye based assay
Assay [2] deals with T1, Carbonic anhydrase 4. This is another data set of the same source.
Description: Inhibition of human CA-IV

T1 sequence (P22748 whole entry): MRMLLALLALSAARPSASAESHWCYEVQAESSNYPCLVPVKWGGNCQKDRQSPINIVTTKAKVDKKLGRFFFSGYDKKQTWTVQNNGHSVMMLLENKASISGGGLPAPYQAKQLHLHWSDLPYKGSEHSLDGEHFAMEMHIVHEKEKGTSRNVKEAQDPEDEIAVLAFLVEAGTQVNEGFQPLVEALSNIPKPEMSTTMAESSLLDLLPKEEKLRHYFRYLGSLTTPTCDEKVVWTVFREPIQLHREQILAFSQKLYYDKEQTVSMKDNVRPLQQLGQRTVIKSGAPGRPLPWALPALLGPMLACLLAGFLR
Sequence of Carbonic anhydrase 12 (O43570 whole entry): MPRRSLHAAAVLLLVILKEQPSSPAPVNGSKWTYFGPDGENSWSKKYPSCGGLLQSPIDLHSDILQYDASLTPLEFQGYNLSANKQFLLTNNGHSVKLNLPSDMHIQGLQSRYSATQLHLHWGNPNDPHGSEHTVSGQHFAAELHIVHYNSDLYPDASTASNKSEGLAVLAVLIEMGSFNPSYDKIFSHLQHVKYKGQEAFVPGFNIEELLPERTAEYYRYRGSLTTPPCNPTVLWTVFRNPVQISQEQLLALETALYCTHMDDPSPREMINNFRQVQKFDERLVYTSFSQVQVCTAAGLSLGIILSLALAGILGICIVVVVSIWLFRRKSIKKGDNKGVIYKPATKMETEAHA
Sequence of Carbonic anhydrase 1 (P00915 whole entry): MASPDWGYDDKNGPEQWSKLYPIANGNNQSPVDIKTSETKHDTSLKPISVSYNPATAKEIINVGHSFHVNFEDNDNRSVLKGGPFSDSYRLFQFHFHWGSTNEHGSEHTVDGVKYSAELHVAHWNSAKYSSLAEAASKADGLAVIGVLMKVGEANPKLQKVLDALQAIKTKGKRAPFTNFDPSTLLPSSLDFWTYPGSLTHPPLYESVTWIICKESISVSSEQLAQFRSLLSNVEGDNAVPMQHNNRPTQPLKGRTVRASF
Description for Carbonic anhydrase 12: Inhibition of human CA-XII-catalysed CO2 hydration activity incubated for 15 min by Phenol red dye based assay
Description for Carbonic anhydrase 2: Inhibition of human CA-II-catalysed CO2 hydration activity incubated for 15 min by Phenol red dye based assay
Description for Carbonic anhydrase 9: Inhibition of human CA-IX-catalysed CO2 hydration activity incubated for 15 min by Phenol red dye based assay

`CC(F)CN(CCCN)S(=O)(=O)c1ccc([N+](=O)[O-])cc1` (centres undefined): the Ki (as a rule, the equilibrium dissociation constant of an inhibitor or competing ligand from its target) at Carbonic anhydrase 1 is over 100 µM; at Carbonic anhydrase 12, 5.2 µM; at Carbonic anhydrase 2, 0.72 µM; at Carbonic anhydrase 9 it was over 100 µM; on Carbonic anhydrase 4 [1], 51.2 µM.
With `CN(CC(F)CN)S(=O)(=O)c1ccc([N+](=O)[O-])cc1` (centres undefined), the Ki at Carbonic anhydrase 1 is over 100 µM; at Carbonic anhydrase 12, 3.65 µM; on Carbonic anhydrase 2, 0.79 µM; on Carbonic anhydrase 9, 89 µM; at Carbonic anhydrase 4 [1], 20.1 µM.
Turning to `CC(F)CNS(=O)(=O)c1ccc([N+](=O)[O-])cc1` (centres undefined), the IC50 (in general, the concentration at which inhibition is half-maximal) at Carbonic anhydrase 4 [2] came to 0.071 µM. Further, the Ki stood at 4.5 µM on Carbonic anhydrase 1; 4.2 µM on Carbonic anhydrase 12; 2.4 µM at Carbonic anhydrase 2; 2.2 µM at Carbonic anhydrase 9; 0.071 µM on Carbonic anhydrase 4 [1].
Turning to `CC(F)(F)CNCCCCN`, the inhibition constant (Ki) on Carbonic anhydrase 1, at Carbonic anhydrase 12 and at Carbonic anhydrase 2 was over 100 µM in each case.
As to `CC(F)CNCCCN1C(=O)c2ccccc2C1=O` (centres undefined), the Ki on Carbonic anhydrase 1 was over 100 µM; on Carbonic anhydrase 12, over 100 µM; on Carbonic anhydrase 2, 4.26 µM; on Carbonic anhydrase 9, over 100 µM; on Carbonic anhydrase 4 [1], 0.13 µM.
For the compound `CC(F)(F)CNCCCN`, the Ki on Carbonic anhydrase 1 and on Carbonic anhydrase 12 was over 100 µM throughout.
As for `CC(F)CNCCCCN1C(=O)c2ccccc2C1=O` (centres undefined), the Ki on Carbonic anhydrase 1 was 0.25 µM; at Carbonic anhydrase 12 it was 0.006 µM; on Carbonic anhydrase 2 it was 0.012 µM; on Carbonic anhydrase 9, 0.026 µM; at Carbonic anhydrase 4 [1] it was 0.074 µM.
For `CC(F)CN(CCCCN1C(=O)c2ccccc2C1=O)S(=O)(=O)c1ccc([N+](=O)[O-])cc1` (centres undefined) the same measures were over 100 µM, 0.64 µM, 34 µM, over 100 µM and over 100 µM.
Turning to `CC(F)(F)CNCCCCN1C(=O)c2ccccc2C1=O`, the inhibition constant Ki at Carbonic anhydrase 1 and at Carbonic anhydrase 4 [1] was over 100 µM each time.
With `CC(F)(F)CN(CCCN1C(=O)c2ccccc2C1=O)S(=O)(=O)c1ccc([N+](=O)[O-])cc1`, the Ki at Carbonic anhydrase 1, at Carbonic anhydrase 9 and on Carbonic anhydrase 4 [1] was over 100 µM throughout.
Regarding `CN(CC(F)CN1C(=O)c2ccccc2C1=O)S(=O)(=O)c1ccc([N+](=O)[O-])cc1` (centres undefined), the inhibition constant (Ki) at Carbonic anhydrase 1, at Carbonic anhydrase 12, on Carbonic anhydrase 2, on Carbonic anhydrase 9 and on Carbonic anhydrase 4 [1] was over 100 µM each time.
Regarding `CCCNCCCCN`, the Ki on Carbonic anhydrase 1 is over 100 µM; at Carbonic anhydrase 12, 28.6 µM; on Carbonic anhydrase 2 it was over 100 µM; on Carbonic anhydrase 9, 3.08 µM; at Carbonic anhydrase 4 [1], 0.093 µM.
For `CC(F)(F)CN(CCCCN1C(=O)c2ccccc2C1=O)S(=O)(=O)c1ccc([N+](=O)[O-])cc1`, the Ki at Carbonic anhydrase 1, on Carbonic anhydrase 2, at Carbonic anhydrase 9 and on Carbonic anhydrase 4 [1] was over 100 µM each time.
Regarding `O=C1c2ccccc2C(=O)N1CC(F)CNS(=O)(=O)c1ccc([N+](=O)[O-])cc1` (centres undefined), the Ki was over 100 µM on Carbonic anhydrase 1; over 100 µM on Carbonic anhydrase 12; 0.076 µM at Carbonic anhydrase 2; over 100 µM at Carbonic anhydrase 9; over 100 µM on Carbonic anhydrase 4 [1].
Turning to `CCCNCCCN`, the Ki on Carbonic anhydrase 1 is over 100 µM; at Carbonic anhydrase 12, 52.7 µM; at Carbonic anhydrase 2, over 100 µM; on Carbonic anhydrase 9, 2.95 µM; at Carbonic anhydrase 4 [1], 0.095 µM.
Take `O=[N+]([O-])c1ccc(S(=O)(=O)NCC(F)CCl)cc1` (centres undefined): the inhibition constant (Ki) on Carbonic anhydrase 1 is 3.02 µM; at Carbonic anhydrase 12 it was 0.68 µM; at Carbonic anhydrase 2, 0.026 µM; on Carbonic anhydrase 9, 20 µM; on Carbonic anhydrase 4 [1], over 100 µM.
For `CN(CC(F)CCl)S(=O)(=O)c1ccc([N+](=O)[O-])cc1` (centres undefined) the same measures were over 100 µM, over 100 µM, over 100 µM, over 100 µM and over 100 µM.
`CC(=O)N1N=C(c2ccc(S(N)(=O)=O)cc2)CC1c1c(Cl)cccc1Cl` (centres undefined) yielded a Ki on Carbonic anhydrase 4 [1] of 0.0177 µM.
With `CC(F)CNCCCCN` (centres undefined), the Ki at Carbonic anhydrase 1 is over 100 µM; at Carbonic anhydrase 12 it was over 100 µM; at Carbonic anhydrase 2, 63.7 µM; on Carbonic anhydrase 9, 0.38 µM; at Carbonic anhydrase 4 [1] it was 0.028 µM.
For the compound `CC(F)CN(CCCN1C(=O)c2ccccc2C1=O)S(=O)(=O)c1ccc([N+](=O)[O-])cc1` (centres undefined), the Ki is over 100 µM at Carbonic anhydrase 1; 7 µM on Carbonic anhydrase 12; 78.4 µM on Carbonic anhydrase 2; over 100 µM at Carbonic anhydrase 9; over 100 µM at Carbonic anhydrase 4 [1].
In the case of `CC(F)CNCCCN` (centres undefined), the Ki is over 100 µM at Carbonic anhydrase 1; over 100 µM at Carbonic anhydrase 12; 36.9 µM at Carbonic anhydrase 2; 1.44 µM at Carbonic anhydrase 9; 0.034 µM at Carbonic anhydrase 4 [1].
For the compound `CC(F)(F)CNCCCN1C(=O)c2ccccc2C1=O`, the inhibitory constant (Ki) on Carbonic anhydrase 1, on Carbonic anhydrase 12 and on Carbonic anhydrase 9 was over 100 µM each time.
